US8946223B2, “Substituted hydroxamic acids and uses thereof” (Millennium Pharmaceuticals, Inc., priority 2010, dated 2015)

Target: T1, purified human HDAC6 (Homo sapiens, UniProt Q9UBN7)
T1 construct: purchased BPS Bioscience 5006
T1 sequence (Q9UBN7 1-1215): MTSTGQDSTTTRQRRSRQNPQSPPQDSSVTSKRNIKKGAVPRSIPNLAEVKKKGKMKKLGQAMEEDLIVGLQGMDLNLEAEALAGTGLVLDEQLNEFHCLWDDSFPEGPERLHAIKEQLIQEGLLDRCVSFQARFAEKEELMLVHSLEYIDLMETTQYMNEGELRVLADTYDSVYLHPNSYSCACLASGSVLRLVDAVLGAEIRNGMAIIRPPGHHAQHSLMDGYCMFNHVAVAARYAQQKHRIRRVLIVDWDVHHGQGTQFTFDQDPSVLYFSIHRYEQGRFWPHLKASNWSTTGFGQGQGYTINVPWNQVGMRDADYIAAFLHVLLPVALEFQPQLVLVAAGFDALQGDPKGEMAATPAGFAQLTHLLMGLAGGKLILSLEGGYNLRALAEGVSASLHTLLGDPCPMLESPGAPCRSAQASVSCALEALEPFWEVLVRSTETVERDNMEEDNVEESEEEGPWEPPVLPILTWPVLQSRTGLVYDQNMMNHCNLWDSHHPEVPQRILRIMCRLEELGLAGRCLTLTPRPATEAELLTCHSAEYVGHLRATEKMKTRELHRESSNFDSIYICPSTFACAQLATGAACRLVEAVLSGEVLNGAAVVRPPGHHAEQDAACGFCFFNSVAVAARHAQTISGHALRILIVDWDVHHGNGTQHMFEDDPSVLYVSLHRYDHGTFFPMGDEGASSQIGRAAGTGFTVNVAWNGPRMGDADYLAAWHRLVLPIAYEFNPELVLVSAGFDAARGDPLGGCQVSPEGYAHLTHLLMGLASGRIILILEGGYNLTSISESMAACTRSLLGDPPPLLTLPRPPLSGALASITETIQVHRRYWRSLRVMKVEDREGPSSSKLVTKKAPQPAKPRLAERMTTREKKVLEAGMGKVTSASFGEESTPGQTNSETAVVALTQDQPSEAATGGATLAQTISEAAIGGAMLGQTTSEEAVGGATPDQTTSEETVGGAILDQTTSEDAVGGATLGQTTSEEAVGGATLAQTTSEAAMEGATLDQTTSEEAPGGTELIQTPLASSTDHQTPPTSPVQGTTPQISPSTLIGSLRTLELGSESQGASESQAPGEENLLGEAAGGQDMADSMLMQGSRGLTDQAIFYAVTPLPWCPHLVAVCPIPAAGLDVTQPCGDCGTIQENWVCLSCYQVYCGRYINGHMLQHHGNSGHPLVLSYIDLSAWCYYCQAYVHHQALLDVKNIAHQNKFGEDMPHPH
Experiment: HDAC6 enzyme assay
Type: biochemical
Experimental: To measure the inhibition of HDAC6 activity, purified human HDAC6 (BPS Bioscience; Cat. No. 5006) is incubated with substrate Ac-Arg-Gly-Lys(Ac)-AMC peptide (Bachem Biosciences; Cat. No. I-1925) for 1 hour at 30° C. in the presence of test compounds or vehicle DMSO control. The reaction is stopped with the HDAC inhibitor trichostatin A (Sigma; Cat. No. T8552) and the amount of Arg-Gly-Lys-AMC generated is quantitated by digestion with trypsin (Sigma; Cat. No. T1426) and subsequent measurement of the amount of AMC released using a fluorescent plate reader (Pherastar; BMG Technologies) set at Ex 340 nm and Em 460 nm. Concentration response curves are generated by calculating the fluorescence increase in test compound-treated samples relative to DMSO-treated controls, and enzyme inhibition (IC50) values are determined from those curves.

[1] = bins: greater than 1 μM and less than 10 μM, greater than 10 μM

Compound | IC50 [1] | IC50 (bin: less than 100 nM)
Cc1c(C(=O)N2CCCn3nc(C(=O)NO)cc3C2)oc2ccccc12 [Compound I-108, N-hydroxy-5-[(3-methyl-1-benzofuran-2-yl)carbonyl]-5,6,7,8-tetrahydro-4H-pyrazolo[1,5-a][1,4]diazepine-2-carboxamide] | 1000 to 10000 nM | –
CC(C)N1CCn2nc(C(=O)NO)cc2C1=O [Compound I-46, N-hydroxy-5-isopropyl-4-oxo-4,5,6,7-tetrahydropyrazolo[1,5-a]pyrazine-2-carboxamide] | 1000 to 10000 nM | –
CC(C)CCN1CCn2nc(C(=O)NO)cc2C1=O [Compound I-77, N-hydroxy-5-(3-methylbutyl)-4-oxo-4,5,6,7-tetrahydropyrazolo[1,5-a]pyrazine-2-carboxamide] | 1000 to 10000 nM | –
O=C(NO)c1cc2n(n1)CCN(CCCn1cccc1)C2=O [Compound I-109, N-hydroxy-4-oxo-5-[3-(1H-pyrrol-1-yl)propyl]-4,5,6,7-tetrahydropyrazolo[1,5-a]pyrazine-2-carboxamide] | 1000 to 10000 nM | –
Cc1c(C(=O)N2CCCn3cc(C(=O)NO)cc3C2)cnn1-c1ccccc1 [Compound I-7, N-hydroxy-2-[(5-methyl-1-phenyl-1H-pyrazol-4-yl)carbonyl]-2,3,4,5-tetrahydro-1H-pyrrolo[1,2-a][1,4]diazepine-8-carboxamide] | 1000 to 10000 nM | –
O=C(NO)c1cc2n(n1)CCN(C(=O)CCc1ccccc1)C2 [Compound I-106, N-hydroxy-5-(3-phenylpropanoyl)-4,5,6,7-tetrahydropyrazolo[1,5-a]pyrazine-2-carboxamide] | 1000 to 10000 nM | –
O=C(NO)c1cc2n(n1)CCN(CC1CC1)C2=O [Compound I-83, 5-(cyclopropylmethyl)-N-hydroxy-4-oxo-4,5,6,7-tetrahydropyrazolo[1,5-a]pyrazine-2-carboxamide] | 1000 to 10000 nM | –
CC1(C(=O)N2CCn3cc(C(=O)NO)nc3C2)CCCCC1 [Compound I-26, N-hydroxy-7-(1-methylcyclohexanecarbonyl)-5,6,7,8-tetrahydroimidazo[1,2-a]pyrazine-2-carboxamide] | 1000 to 10000 nM | –
O=C(NO)c1cc2n(c1)CCN(C(=O)c1c[nH]c3ccccc13)C2 [Compound I-75, N-hydroxy-2-(1H-indol-3-ylcarbonyl)-1,2,3,4-tetrahydropyrrolo[1,2-a]pyrazine-7-carboxamide] | – | < 100 nM
O=C(NO)c1cc2n(c1)CCN(C(=O)c1cnn3cccnc13)C2 [Compound I-84, N-hydroxy-2-(pyrazolo[1,5-a]pyrimidin-3-ylcarbonyl)-1,2,3,4-tetrahydropyrrolo[1,2-a]pyrazine-7-carboxamide] | > 10000 nM | –
Cc1onc(-c2ccccc2)c1CN1CCn2cc(C(=O)NO)cc2C1=O [Compound I-197, N-hydroxy-2-[(5-methyl-3-phenylisoxazol-4-yl)methyl]-1-oxo-1,2,3,4-tetrahydropyrrolo[1,2-a]pyrazine-7-carboxamide] | – | < 100 nM
CS(=O)(=O)c1cccc(C(=O)N2CCn3cc(C(=O)NO)cc3C2)c1 [Compound I-54, N-hydroxy-2-[3-(methylsulfonyl)benzoyl]-1,2,3,4-tetrahydropyrrolo[1,2-a]pyrazine-7-carboxamide] | > 10000 nM | –
O=C(NO)c1cc2n(c1)CCCN(C(=O)c1ccc(Cl)cc1)C2 [Compound I-56, 2-(4-chlorobenzoyl)-N-hydroxy-2,3,4,5-tetrahydro-1H-pyrrolo[1,2-a][1,4]diazepine-8-carboxamide] | 1000 to 10000 nM | –
COc1ccc(C(=O)N2CCn3cc(C(=O)NO)cc3C2)cc1 [Compound I-68, N-hydroxy-2-(4-methoxybenzoyl)-1,2,3,4-tetrahydropyrrolo[1,2-a]pyrazine-7-carboxamide] | – | < 100 nM
Cc1ccc(C(=O)N2CCCn3cc(C(=O)NO)cc3C2)s1 [Compound I-69, N-hydroxy-2-[(5-methyl-2-thienyl)carbonyl]-2,3,4,5-tetrahydro-1H-pyrrolo [1,2-a][1,4]diazepine-8-carboxamide] | > 10000 nM | –
Cc1ccc2[nH]c(C(=O)N3CCn4cc(C(=O)NO)cc4C3)cc2c1 [Compound I-22, N-hydroxy-2-[(5-methyl-1H-indol-2-yl)carbonyl]-1,2,3,4-tetrahydropyrrolo[1,2-a]pyrazine-7-carboxamide] | – | < 100 nM
O=C(NO)c1cn2c(n1)CN(C(=O)Nc1ccccc1)CC2 [Compound I-116, N2-hydroxy-N7-phenyl-5,6-dihydroimidazo[1,2-a]pyrazine-2,7(8H)-dicarboxamide] | – | < 100 nM
Cn1c(C(=O)N2CCn3cc(C(=O)NO)cc3C2)cc(Cl)c1Cl [Compound I-91, 2-[(4,5-dichloro-1-methyl-1H-pyrrol-2-yl)carbonyl]-N-hydroxy-1,2,3,4-tetrahydropyrrolo[1,2-a]pyrazine-7-carboxamide] | – | < 100 nM
O=C(NO)c1cc2n(c1)CCCN(C(=O)C1CCCC1)C2 [Compound I-19, 2-(cyclopentylcarbonyl)-N-hydroxy-2,3,4,5-tetrahydro-1H-pyrrolo[1,2-a][1,4]diazepine-8-carboxamide] | > 10000 nM | –
CCc1cc(C(=O)N2CCCn3cc(C(=O)NO)cc3C2)n(C)n1 [Compound I-95, 2-[(3-ethyl-1-methyl-1H-pyrazol-5-yl)carbonyl]-N-hydroxy-2,3,4,5-tetrahydro-1H-pyrrolo[1,2-a][1,4]diazepine-8-carboxamide] | 1000 to 10000 nM | –
O=C(NO)c1cn2c(n1)CN(C(=O)C13CC4CC(CC(C4)C1)C3)CC2 [Compound I-27, 7-[1-adamantylcarbonyl]-N-hydroxy-5,6,7,8-tetrahydroimidazo[1,2-a]pyrazine-2-carboxamide] | 1000 to 10000 nM | –
O=C(NO)c1cc2n(c1)CCCN(C(=O)C1(c3ccc(Cl)cc3)CC1)C2 [Compound I-34, 2-{[1-(4-chlorophenyl)cyclopropyl]carbonyl}-N-hydroxy-2,3,4,5-tetrahydro-1H-pyrrolo[1,2-a][1,4]diazepine-8-carboxamide] | 1000 to 10000 nM | –
CC1(C(=O)N2CCn3nc(C(=O)NO)cc3C2)CCCCC1 [Compound I-6, N-hydroxy-5-[(1-methylcyclohexyl)carbonyl]-4,5,6,7-tetrahydropyrazolo[1,5-a]pyrazine-2-carboxamide] | 1000 to 10000 nM | –
O=C(NO)c1cc2n(n1)CCN(C(=O)C13CC4CC(CC(C4)C1)C3)C2 [Compound I-16, 5-(1-adamantylcarbonyl)-N-hydroxy-4,5,6,7-tetrahydropyrazolo[1,5-a]pyrazine-2-carboxamide] | 1000 to 10000 nM | –
O=C(NO)c1cc2n(n1)CCN(C(=O)C1(C(F)(F)F)CC1)C2 [Compound I-8, N-hydroxy-5-{[1-(trifluoromethyl)cyclopropyl]carbonyl}-4,5,6,7-tetrahydropyrazolo[1,5-a]pyrazine-2-carboxamide] | 1000 to 10000 nM | –
Cn1c(C(=O)N2CCn3cc(C(=O)NO)cc3C2)cc2ccccc21 [Compound I-20, N-hydroxy-2-[(1-methyl-1H-indol-2-yl)carbonyl]-1,2,3,4-tetrahydropyrrolo[1,2-a]pyrazine-7-carboxamide] | – | < 100 nM
Cn1c(C(=O)N2CCCn3cc(C(=O)NO)cc3C2)cc2oc(-c3ccc(C(F)(F)F)cc3)cc21 [Compound I-5, N-hydroxy-2-({4-methyl-2-[4-(trifluoromethyl)phenyl]-4H-furo[3,2-b]pyrrol-5-yl}carbonyl)-2,3,4,5-tetrahydro-1H-pyrrolo[1,2-a][1,4]diazepine-8-carboxamide] | 1000 to 10000 nM | –
Cn1c(C(=O)N2CCn3cc(C(=O)NO)cc3C2)ccc1S(N)(=O)=O [Compound I-47, 2-{[5-(aminosulfonyl)-1-methyl-1H-pyrrol-2-yl]carbonyl}-N-hydroxy-1,2,3,4-tetrahydropyrrolo[1,2-a]pyrazine-7-carboxamide] | – | < 100 nM
